These results are taken from publication PMC9750872, “Ras-mutant cancers are sensitive to small molecule inhibition of V-type ATPases in mice” (Nature biotechnology, 2022).

Data set [1] deals with V-ATPase-dependent proton transport in HEK293T cells. The data set can be described thus: Proton pumping assay, FITC-Dextran-loaded lysosomes. The format is cell-based, human. Conditions: 1 h treatment. An excerpt: Figure 4. […] (A) Model of the reversible assembly of V-ATPase. Cytosolic V1 subunits are depicted in blue and membrane Vo subunits in purple. Upon V-ATPase assembly, ATP is hydrolyzed to ADP accompanied by proton (H^+) pumping and luminal acidification (decrease in pH) (Created with BioRender). […] The amount of subunit B2 present in the membrane fraction indicates the amount of assembled V-ATPase. A representative Western blot is presented. […] Cells were mechanically lysed, and a fraction containing FITC-Dextran-loaded lysosomes was isolated by sedimentation centrifugation. Fluorescence was measured over time to assess pH-dependent quenching following addition of 1 mM magnesium-ATP (predetermined). […] Representative of 5 individual experiments with n = 3 for each is presented (mean ± SD) (D) Mammalian V-ATPase activity measured in the absence and presence of 1 μM 249C and 1 μM BafA1. Data shown are mean ± SD; n = 3. […]
4 × 10^6 HEK 293T cells were plated in 10-cm plates. […] Sample fluorescence was excited at 490 nm, and emission fluorescence at 520 nm was measured continuously in BioTek plate reader (Synergy) using Gen5 software (version 3.05). After initial fluorescence stabilization, 1 mM ATP and 2 mM MgCl2 were added to initiate ATPase activity and proton pumping into the lysosomes, which causes quenching of FITC in the lysosomal lumen. […]

In the next data set the test system is MEFs bearing BRAFV600E. The experiment in a line: Macropinocytosis, TMR-dextran uptake. Format: cell-based. Conditions: Mus musculus; 2 μM 249C 18 h, DMSO = 100%; read-out: inhibition of MP. Here is the method: (§1) Macropinosome visualization was essentially done as previously described. Cells were plated in black, clear bottom CellCarrier-96 Ultra Microplates (PerkinElmer 6055302) and serum-starved for 24 h. The next day, they were treated with 2 μM 249C (1255) for 18 h followed by addition of 70 kDa TMR-Dextran (Invitrogen D1818) and Hoescht for 2 hours at 37 °C prior to 3 × cold PBS washes and fixation in 4% paraformaldehyde for 30 min. Following 3 × cold PBS washes, mounting medium (Vector Laboratories Inc.) was added and images were captured using an Operetta CLS™ fluorescent microscope for High-Content Analysis (PerkinElmer). Image analysis and quantification was performed with a spot segmentation algorithm using the Perkin Elmer Harmony® PhenoLOGIC™ 3.2 software. Briefly, the images were segmented and individual nuclei (DAPI stained) and cell bodies (by digital phase contrast imaging) were identified. The TMR signal was used for the spot segmentation analysis block. […] Data are presented as spots - number of objects per nucleus. For each cell line, 5 DMSO control and 5 249C-treated wells were imaged and a minimum of 3 images were captured per well. Data representing three independent experiments are presented.

Another data set has as its system MEFs bearing KRASG12V. The data set can be described thus: Macropinocytosis, TMR-dextran uptake. Format: cell-based. Conditions: Mus musculus; 2 μM 249C 18 h, DMSO = 100%; read-out: inhibition of MP. The protocol: as §1
In the next data set the test system is MEFs bearing KRASG13D. The experiment in a line: Macropinocytosis, TMR-dextran uptake. The format is cell-based. The conditions noted are these: Mus musculus; 2 μM 249C 18 h, DMSO = 100%; read-out: inhibition of MP. The protocol:
as §1

In a further data set the test system is human primary cells. The data set can be described thus: BioMAP Safety and Toxicology screening profile. Format: cell-based. Conditions: over 100 biomarker readouts. The protocol: The BioMAP Toxicity Screening Profile was performed as described previously.
Data set [2] relates to NSCLC A549 (KRASG12S) xenografts. The data set can be described thus: A549 lung cancer xenograft. Format: in vivo. The conditions noted are these: 10 mg/kg twice daily i.p. Here is the method:
Finally, to test whether 249C could inhibit autophagy and attenuate the growth of mutant KRAS-dependent cancers as a single agent in vivo, we evaluated 249C in a mouse xenograft model of lung cancer (NSCLC, A549). Briefly, we injected mutant KRAS A549 (G12S) cells into the flanks of athymic mice to establish xenografts, randomly assigned mice to vehicle control (n = 7) or 249C-recipient groups (n = 7, 10 mg/kg) with twice daily i.p. injections, and recorded tumor volume and body weight over time. […] We subsequently sacrificed all mice and excised their tumors for further investigation.
5 × 10^6 A549 cells were subcutaneously injected into the lower left flank of 6–8-week old athymic nude female mice (Charles River strain # 088, homozygous NU/NU). To assess establishment of tumors, mice were examined 5 days post-inoculation and were randomly segregated into two treatment groups [vehicle control, 10 mg/kg 249C IP, n = 7 per group] and were treated twice daily with the drug in NPM or vehicle control (5% weight aqueous solution of carboxymethyl cellulose). Tumor volumes were calculated using the formula (L × W × H)/2 with recorded caliper measurements. Survival curves and statistical analyses were performed using Excel. Animals were maintained on a standard chow diet; 12:12 dark/light cycle and in group housing in hepa-filtered cages. All animal procedures were performed under IACUC approved protocols and guidelines. Animals from both groups were weighed every 3 days. Plasma concentration was measured from blood collected using standard and established protocols.

The subject of the next data set is MEFs KRASWT. The experiment in a line: Cell proliferation of Ras-less MEFs expressing human KRAS/BRAF. Conditions: Mus musculus.
The next data set deals with MEFs KRAS G12S. Described as above. Conditions: Mus musculus.

Entries after “also recorded” stand apart in the source; their conditions may differ.

Description for MEFs KRAS G12S: (§2) Logarithmically growing cells were plated in antibiotic-free medium supplemented with 2% fetal bovine serum at a density of 5,000 cells per well. The next day, cells were treated in triplicates with increasing doses of in-house small molecule inhibitor drugs and a DMSO vehicle control for 3 days and subsequently assessed for cell viability by measurement of ATP with CellTiter-Glo Luminescent Cell Viability Assay (Promega). Signal intensity was read on a Glomax™ 96 Microplate Luminometer (Promega) with GLOMAX software (version 1.9.3) and percent cell survival was calculated based on the reading of vehicle control cells set as 100% using Excel (2012) and GraphPad Prism (version 6)Each compound was tested a minimum of 2 times with n = 3. All cell proliferation assays (cancer cell lines or MEFs) were done in a similar way.
Description for MEFs KRASWT: Cell proliferation assays of stable cell lines treated with V-ATPase inhibitors 249C and BafA1, HCQ analog (DC661), KRASG12C inhibitor (AMG510) and autophagy inducer (CMA). For each bar, n = 3. Representative of 3 biological replicates (mean ± SD). Two-sided t-test with no adjustments for multiple comparisons.
as §2

For orientation: inhibition means the drop in the measured response relative to a control, in per cent. For orientation: IC50 means the concentration at which inhibition is half-maximal. Consider `CN1CCOC(CNC(=O)C2(C)C(c3ccc(Cl)o3)C(c3ccc(F)cc3F)=NN2c2ccc(F)cc2F)C1` (stereo not shown) [Compound 249C], for which, in data set [1], the “V-ATPase-dependent proton transport (ATP-dependent fluorescence quenching)” value was “inhibited V-ATPase-dependent proton transport; also recorded: ATP-dependent fluorescence quenching was not observed”. Further, the inhibition at 2 µM in the data set with MEFs bearing BRAFV600E was 90%; with MEFs bearing KRASG12V, 73%; in the data set on MEFs bearing KRASG13D, 94%. Moreover, the “toxicity categories / adverse events in BioMAP safety profiling” value with human primary cells was “no adverse events”. Besides, the “tumor volume vs vehicle” value in data set [2] (athymic mice) is recorded as “significantly lower”. For the same compound, the “tumor mass vs vehicle” value in data set [2] (end point) is “lower”. In addition, the “tissue weight of treated mice vs vehicle” value in data set [2] (mice bearing A549 xenografts) was “No significant difference in tissue weight”. The IC50 in the data set with MEFs KRASWT was determined as 1250 nM; in the data set with MEFs KRAS G12S, 230 nM.
